From US7488738B2, “Aminophenoxyacetic acid derivatives and pharmaceutical composition containing thereof” (Asubio Pharma Co., Ltd., priority 1998, dated 2009) come the findings set out here.

One assay relates to cells of cerebral cortex. The assay is described as follows: Cytoprotective effect against glutamate induced cell death (MTT). Conditions: compound 1 μM added 24 h before 1 mM glutamate, fetal rat cerebral cortex cells, control group = 100%; for viability at 1 µM: read-out: Survival Rate (%) (Compound: 1 μM). The assay is classed as cell-based, rats of Wister strain. On the procedure: Biological Test 1: Cytoprotective Effect Against Glutamate Induced Cell Death
In accordance with the method of M. P. Mattoson [M. P. Mattoson, Brain Res. Rev., 13, 179 (1988)], brain of 18-days fetus rats of Wister strain were taken out. Then, cells of cerebral cortex (4×10^5 cells/ml) were seeded on poly-L-lysine coated 96 wells flat bottom plate (Sumitomo Bakelite Co., Ltd.) in concentration of 4×10^4 cells/each well. After 48 hours of incubation, 1 μM of test compounds were added, then after further 24 hours, 1 mM of glutamate were further added for inducing the cell injury. 12 hours after adding glutamate, MTT [3-(4,5-dimethylthiazol)-2,5-diphenyltetrazolium bromide] was added and incubated for 6 hours.
After incubation, 200 μl of dimethy sulfoxide was added to each wells, and the amounts of reduced MTT were calorimetrically analyzed by Micro ELISA Reader using 570 nm of main-wavelength and 650 nm of sub-wavelength.
The effect of the test compounds was determined as the survival rate of living cells (%) according to the following equation: Survival rate of living cells (%)=[(test compound group−glutamate treated group)÷(control group−glutamate treated group)]×100
That is, the survival rate of living cells after incubation of the control group was converted to 100%, and the survival data of living cells of the tested compounds was shown in Table II.

Assay [1] concerns rats of slc:Wister strain. The assay is described as follows: Cerebral edema suppressing effect (brain injury by metal screw). Particulars: rat, water content of injured hemisphere 6 days after operation. Type of assay: in vivo. The protocol: Biological Test 3: Cerebral Edema Suppressing Effect 8-week-old rats of slc:Wister strain were used. Rats were anesthetized by intraperitoneal administration of 50 mg/kg of Nembutal (Trade Name), and then, fixed on brain fixactor. The sterile metal screw (3.75 mm in length/1.0 mm in diameter/0.75 mm in length of screw thread) was plugged in the 1.5 mm right and 0.8 mm rear side of the bregma to press frontparietal cortex organ to cause brain injury. 6 days after the operation, the whole brain was taken out and right cerebral hemisphere (injured side) was isolated. After measurement of the wet weight of the cerebral hemisphere, it was dried at 110° C. for 24 hours on aluminum foil. The dry weight of the cerebral hemisphere was measured, and the water content was calculated by using the following formula: Water content (%)=[(wet weight of hemisphere−dry weight of hemisphere)/wet weight of hemisphere]×100 The test compounds were intravenously administered just after the operation via tail vein of the rats.

Another assay relates to calbindin D28Kd. The assay is described as follows: Calbindin D28Kd inducing effect (western blot). Type of assay: cell-based, rats of Wister strain. Particulars: fetal rat cerebral cortex cells, none-treated control = 100. On the procedure:
Biological Test 2: Calbindin D28Kd Inducing Effect
In accordance with the method of M. P. Mattoson [M. P. Mattoson, Brain Res. Rev., 13, 179 (1988)], brain of 18-days fetus rats of Wister strain were taken out. Then, cells of cerebral cortex (5,500 cells/m^2) were seeded on poly-L-lysine coated 6 wells plate (Falcon) (3.5 mm, Sumilon) and incubated for 7 days.
Test compounds were added on culture day 5, and after 7 days of incubation, the protein was extracted with homogenized buffer-solution [containing 20 mM of Tris-HCl (pH=7.4), 1 mM of EDTA, and 0.1 mM of phenylmethylsulfonyl fluoride].
The effect of the test compounds was determined by the western blot technique using polyclonal anti calbindine D28K (Swant Co., Ltd.) as antibody.
In the table, the amount of induced calbindine D28Kd of the control group (none-treated group) was indicated as 100 percents.

Setting [2] is: 3 mg/kg intravenously just after operation.
Setting [3] is: 1 mg/kg intravenously just after operation.

Regarding `Cc1c(C)c(NCC(=O)N(C)C2CCN(CC3CC3)CC2)c(C)c(C)c1N` [Compound 113], the “Survival Rate (%) (Compound: 1 μM)” value in the assay with cells of cerebral cortex is reported as 74%. Also, the “Cerebral edema suppressing rate (%)” value in assay [1] (setting [2]) was 20.0%. `Cc1cc(C)c(NCC(=O)N(C)C2CCN(C(=O)c3cccc(C(F)(F)F)c3)CC2)c(C)c1N` [Compound 134, 2-(3-Amino-2,4,6-trimethylanilino)-N-methyl-N-[1-(3-trifluoromethylbenzoyl)-4-piperidinyl]acetamide]: in the assay on cells of cerebral cortex, the viability at 1 µM came to 79%. The “Cerebral edema suppressing rate (%)” value in assay [1] (setting [3]) is on record as 27.9%; in assay [1] (setting [2]), 35.0%. Turning to `Cc1cc(OCC(=O)NC2CCN(CC(=O)N(C)c3ccccc3)CC2)c(C)c(C)c1N` [Compound 108], the “Cerebral edema suppressing rate (%)” value in assay [1] (setting [2]) came out at 20.3%. As to `Cc1c(C)c(NCC(=O)N(C)C2CCN(CC(O)c3ccccc3)CC2)c(C)c(C)c1N` (stereo not shown) [Compound 112, 2-(4-Amino-2,3,5,6-tetramethylanilino)-N-[1-(2-hydroxy-2-phenylethyl)-4-piperidinyl]-N-methylacetamide], the viability at 1 µM in the assay on cells of cerebral cortex turned out to be 76%. The “Cerebral edema suppressing rate (%)” value in assay [1] (setting [2]) worked out at 20.7%. For the compound `Cc1c(C)c(NCC(=O)N(C)C2CCN(CCc3ccccc3)CC2)c(C)c(C)c1N` [Compound 40, 2-(4-Amino-2,3,5,6-tetramethylanilino)-N-methyl-N-[1-(2-phenethyl)-4-piperidinyl]acetamide], the “Amount of induced Calbindine D28Kd (% vs. control) (Compound: 1 μM)” value (shortened to “Amount … (% vs. control) (Compound: 1 μM)”) with calbindin D28Kd is reported as 150 % vs. control. Moreover, in the assay with cells of cerebral cortex, the “Survival Rate (%) (Compound: 1 μM)” value was found to be 108%. Besides, the “Cerebral edema suppressing rate (%)” value in assay [1] (setting [3]) is 31.1%; in assay [1] (setting [2]) it was 20.5%. Take `Cc1cc(OCC(=O)N(C)C2CCN(CC(=O)N(C)c3ccccc3)CC2)c(C)c(C)c1N` [Compound 105, 2-(4-Amino-2,3,5-trimethylphenoxy)-N-methyl-N-[1-(2-(N-methylanilino)-2-oxyethyl)-4-piperidinyl]acetamide]: the “Survival Rate (%) (Compound: 1 μM)” value in the assay with cells of cerebral cortex is listed as 86%. Moreover, the “Cerebral edema suppressing rate (%)” value in assay [1] (setting [2]) came out at 23.2%. For `Cc1c(C)c(NCC(=O)N(C)C2CCN(CCN3CCOCC3)CC2)c(C)c(C)c1N` [Compound 119, 2-(4-Amino-2,3,5,6-tetramethylanilino)-N-methyl-N-{1-[2-(4-morpholinyl)ethyl]-4-piperidinyl}acetamide], the viability at 1 µM with cells of cerebral cortex was found to be 115%. Also, the “Cerebral edema suppressing rate (%)” value in assay [1] (setting [3]) turned out to be 21.6%. Turning to `Cc1cc(C)c(NCC(=O)N(C)C2CCN(C(=O)c3ccccc3)CC2)c(C)c1N` [Compound 128, 2-(3-Amino-2,4,6-trimethylanilino)-N-(1-benzoyl-4-piperidinyl)-N-methylacetamide], the “Amount … (% vs. control) (Compound: 1 μM)” value in the assay with calbindin D28Kd amounted to 171 % vs. control. For the same compound, the viability at 1 µM in the assay with cells of cerebral cortex came out at 81%. Besides, in assay [1] (setting [2]), the “Cerebral edema suppressing rate (%)” value came to 20.3%.

With `Cc1c(C)c(NCC(=O)N(C)C2CCN(CC(=O)c3ccccc3)CC2)c(C)c(C)c1N` [Compound 111, 2-(4-Amino-2,3,5,6-tetramethylanilino)-N-methyl-[1-(2-phenyl-2-oxyethyl)-4-piperidinyl]acetamide], the “Amount … (% vs. control) (Compound: 1 μM)” value with calbindin D28Kd was found to be 167 % vs. control. Besides, the “Survival Rate (%) (Compound: 1 μM)” value in the assay with cells of cerebral cortex is 84%. In assay [1] (setting [2]), the “Cerebral edema suppressing rate (%)” value worked out at 25.0%.

As to `Cc1cc(OCC(=O)N(C)C2CCN(CC(=O)Nc3ccccc3)CC2)c(C)c(C)c1N` [Compound 29, 2-(4-Amino-2,3,5-trimethylphenoxy)-N-[1-(2-anilino-2-oxyethyl)-4-piperidinyl]-N-methylacetamide], in the assay on calbindin D28Kd, the “Amount … (% vs. control) (Compound: 1 μM)” value came to 122 % vs. control. In addition, the “Cerebral edema suppressing rate (%)” value in assay [1] (setting [2]) turned out to be 30.9%. As to `CCCCN1CCC(N(C)C(=O)CNc2c(C)cc(C)c(N)c2C)CC1` [Compound 132, 2-(3-Amino-2,4,6-trimethylanilino)-N-(1-butyl-4-piperidinyl)-N-methylacetamide], the viability at 1 µM in the assay on cells of cerebral cortex was 60%. Further, the “Cerebral edema suppressing rate (%)” value in assay [1] (setting [3]) is 30.4%. `Cc1cc(OCC(=O)NC2CCN(CC(=O)NC3(c4ccccc4)CC3)CC2)c(C)c(C)c1N` [Compound 104, 2-(4-Amino-2,3,5-trimethylphenoxy)-N-[1-(2-(1-phenylcyclopropyl)amino-2-oxyethyl)-4-piperidinyl]acetamide]: the “Survival Rate (%) (Compound: 1 μM)” value with cells of cerebral cortex is 117%. For the same compound, the “Cerebral edema suppressing rate (%)” value in assay [1] (setting [2]) amounted to 18.9%.

As to `Cc1cc(OC(C)(C)C(=O)N(C)C2CCN(CC(=O)Nc3c(C)cccc3C)CC2)c(C)c(C)c1N` [Compound 50, 2-(4-Amino-2,3,5-trimethylphenoxy)-2-methyl-N-[1-(2-(2,6-dimethyl)anilino-2-oxyethyl)-4-piperidinyl]-N-methyl-propamide], the “Survival Rate (%) (Compound: 1 μM)” value in the assay on cells of cerebral cortex is recorded as 54%. Take `Cc1cc(OC(C)(C)C(=O)N(C)C2CCN(CC(=O)Nc3ccccc3)CC2)c(C)c(C)c1N` [Compound 42, 2-(4-Amino-2,3,5-trimethylphenoxy)-2-methyl-N-[1-(2-anilino-2-oxyethyl)-4-piperidinyl]-N-methylpropamide]: the “Survival Rate (%) (Compound: 1 μM)” value with cells of cerebral cortex is 131%. The “Cerebral edema suppressing rate (%)” value in assay [1] (setting [3]) is listed as 24.5%; in assay [1] (setting [2]), 31.0%.

Consider `Cc1c(C)c(NCC(=O)N(C)C2CCN(CC(C(=O)O)c3ccccc3)CC2)c(C)c(C)c1N` (stereo not shown) [Compound 109, 3{4-[[2-(4-Amino-2,3,5,6-tetramethylanilino)-acetyl](methyl)amino]-1-piperidino}-2-phenylpropionic acid], for which, in the assay on cells of cerebral cortex, the “Survival Rate (%) (Compound: 1 μM)” value was 76%. Further, in assay [1] (setting [2]), the “Cerebral edema suppressing rate (%)” value is on record as 24.7%.

Consider `Cc1cc(OC(C)C(=O)N(C)C2CCN(CC(O)COc3ccccc3)CC2)c(C)c(C)c1N` (stereo not shown) [Compound 103, 2-(4-Amino-2,3,5-trimethylphenoxy)-N-methyl-N-[1-(2-hydroxy-3-phenoxy)propyl-4-piperidinyl]propamide], for which the “Survival Rate (%) (Compound: 1 μM)” value in the assay with cells of cerebral cortex was found to be 180%. Same read-out and setting: next, `Cc1cc(OCC(=O)N(C)C2CCN(CC(=O)Nc3cccc(Cl)c3C)CC2)c(C)c(C)c1N` [Compound 45, 2-(4-Amino-2,3,5-trimethylphenoxy)-N-[1-(2-(3-chloro-2-methyl)anilino-2-oxyethyl)-4-piperidinyl]-N-methylacetamide]: 190%. On to `Cc1cc(OC(C)(C)C(=O)NC2CCN(C/C=C/c3ccccc3)CC2)c(C)c(C)c1N` [Compound 80, 2-(4-Amino-2,3,5-trimethylphenoxy)-2-methyl-N-[1-(3-phenyl-2-(E)-propenyl)-4-piperidinyl]propamide], for which the “Survival Rate (%) (Compound: 1 μM)” value in the assay on cells of cerebral cortex was 99%. On to `CCN(C(=O)COc1c(C)c(C)c(N)c(C)c1Cl)C1CCN(CC(=O)Nc2cc(C)c(O)cc2C)CC1` [Compound 93, 2-(4-Amino-2-chloro-3,5,6-trimethylphenoxy)-N-[1-(2-(2,5-dimethyl-4-hydroxy)anilino-2-oxyethyl)-4-piperidinyl]-N-ethylacetamide], for which, in the assay on cells of cerebral cortex, the “Survival Rate (%) (Compound: 1 μM)” value worked out at 171%. With `Cc1c(C)c(N(C)CC(=O)N(C)C2CCN(CCc3ccccc3)CC2)c(C)c(C)c1N` [Compound 120, 2-(4-Amino-2,3,5,6-tetramethyl-N-methylanilino)-N-methyl-N-[1-(2-phenethyl)-4-piperidinyl]acetamide], the “Survival Rate (%) (Compound: 1 μM)” value in the assay on cells of cerebral cortex is recorded as 88%.

With `Cc1cc(C)c(NCC(=O)N(C)C2CCN(C/C=C/c3ccccc3)CC2)c(C)c1N` [Compound 125, 2-(3-Amino-2,4,6-trimethylanilino)-N-methyl-N-[1-(3-phenyl-2-(E)-propenyl)-4-piperidinyl]acetamide], the viability at 1 µM in the assay with cells of cerebral cortex came out at 52%.
